Reference: patent publication US8815893B2, “Hetarylaminonaphthyridines” (Merck Patent GmbH, priority 2010, dated 2014)

Experiments:
GST-ALK5 = molecular target: T1, GST-ALK5 (Homo sapiens, UniProt P36897); assay: In-vitro (enzyme) kinase assay, 384-well flashplate (example 14); assay type: biochemical; settings: GST-ALK5, GST-SMAD2 substrate, 33P-ATP flashplate, 30° C. 45 min; IC50 classes; read-out: TβR activity (example 14)
T1 sequence (P36897 34-503): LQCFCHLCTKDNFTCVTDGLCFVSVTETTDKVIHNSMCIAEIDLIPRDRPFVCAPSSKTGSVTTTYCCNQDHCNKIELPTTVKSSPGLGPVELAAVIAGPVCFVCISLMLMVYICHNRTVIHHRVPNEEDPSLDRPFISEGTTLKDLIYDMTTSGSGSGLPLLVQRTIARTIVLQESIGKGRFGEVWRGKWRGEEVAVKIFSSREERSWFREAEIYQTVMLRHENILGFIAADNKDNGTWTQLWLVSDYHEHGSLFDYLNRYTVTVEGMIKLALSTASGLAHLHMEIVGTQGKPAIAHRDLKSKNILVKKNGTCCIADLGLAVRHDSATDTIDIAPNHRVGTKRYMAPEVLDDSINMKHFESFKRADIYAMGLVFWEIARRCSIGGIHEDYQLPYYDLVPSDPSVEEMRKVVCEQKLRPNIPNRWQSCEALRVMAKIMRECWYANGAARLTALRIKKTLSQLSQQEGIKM
Experimental: In-Vitro (Enzyme) Assay for Determination of the Efficacy of Inhibitors of the Inhibition of TGF-Beta-Mediated Effects
The kinase assay was carried out as 384-well flashplate assay. 31.2 nM of GST-ALK5, 439 nM of GST-SMAD2 and 3 mM of ATP (with 0.3 μCi of ^33P-ATP/well) were incubated in a total volume of 35 μl (20 mM of HEPES, 10 mM of MgCl2, 5 mM of MnCl2, 1 mM of DTT, 0.1% of BSA, pH 7.4) without or with test substance (5-10 concentrations) at 30° C. for 45 min. The reaction was stopped using 25 μl of 200 mM EDTA solution, filtered with suction at room temperature after 30 min, and the wells were washed with 3 times 100 μl of 0.9% NaCl solution. Radioactivity was measured in the TopCount. The IC50 values were calculated using RS1. Above and below, all temperatures were indicated in ° C.

[1] = system: lung epithelial cell line Mv1Lu; assay: Cellular assay for TGF-beta receptor I kinase inhibitors: elimination of TGF-beta-mediated growth inhibition (example 13); assay type: cell-based; settings: 48 h; Mv1Lu cells, 1 ng/ml TGF-beta, 0.5% FCS, two days, Crystal Violet staining; read-out: TβR activity (example 13)
Experimental: Cellular Assay for Testing TGF-Beta Receptor I Kinase Inhibitors
As an example, the ability of the inhibitors to eliminate TGF-beta-mediated growth inhibition was tested. Cells of the lung epithelial cell line Mv1Lu were sown in a defined cell density in a 96-well microtiter plate and cultivated overnight under standard conditions. Next day, the medium was replaced by medium which comprises 0.5% of FCS and 1 ng/ml of TGF-beta, and the test substances were added in defined concentrations, generally in the form of dilution series with 5 fold steps. The concentration of the solvent DMSO was constant at 0.5%. After a further two days, Crystal Violet staining of the cells was carried out. After extraction of the Crystal Violet from the fixed cells, the absorption was measured spectrophotometrically at 550 nm. It could be used as a quantitative measure of the adherent cells present and thus of the cell proliferation during the culture.

Row | SMILES | IC50 (GST-ALK5) | IC50 [1]
1 | CN1CCC(NC(=O)c2cnccc2Nc2cc(-c3cc(Cl)ccc3F)nc3ncccc23)CC1 [compound 95] | < 100 nM | < 100 nM
2 | CNc1nccc(Nc2cc(-c3cccc(C)n3)nc3ncccc23)n1 [compound 90] | < 100 nM | 100 to 1000 nM
3 | NCCC(=O)Nc1cc(Nc2cc(-c3cc(Cl)ccc3F)nc3ncccc23)ncn1 [compound 94] | < 100 nM | < 100 nM
4 | Fc1ccccc1-c1cc(-n2ccc3cncnc32)c2cccnc2n1 [compound 96] | 100 to 1000 nM | 1000 to 10000 nM
5 | CC(C)(C)OC(=O)NCCCC(=O)Nc1cc(Nc2cc(-c3cc(Cl)ccc3F)nc3ncccc23)ncn1 [compound 131] | < 100 nM | < 100 nM
6 | Fc1ccc(F)c(-c2cc(-n3ccc4cnccc43)c3cccnc3n2)c1 [compound 129] | < 100 nM | 100 to 1000 nM
7 | CN1CCC(NC(=O)c2cnccc2Nc2cc(-c3cc(F)ccc3F)nc3ncccc23)CC1 [compound 113] | < 100 nM | < 100 nM
8 | Nc1cc(Nc2cc(-c3ccccc3F)nc3ncccc23)ncn1 [compound 86] | < 100 nM | 100 to 1000 nM
9 | Fc1ccc(Cl)cc1-c1cc(Nc2ccnc(-c3cccnc3)n2)c2cccnc2n1 [compound 97] | 1000 to 10000 nM | > 10000 nM
10 | NC(=O)Nc1cc(Nc2cc(-c3cc(F)ccc3F)nc3ncccc23)ccn1 [compound 143] | < 100 nM | < 100 nM
11 | CC(C)(C)CC(=O)Nc1cc(Nc2cc(-c3cc(F)ccc3F)nc3ncccc23)ncn1 [compound 105] | < 100 nM | 100 to 1000 nM
12 | O=C(CO)Nc1cc(Nc2cc(-c3cc(Cl)ccc3F)nc3ncccc23)ccn1 [compound 82] | < 100 nM | < 100 nM
13 | CC(C)(C)CC(=O)Nc1cc(Nc2cc(-c3cc(Cl)ccc3F)nc3ncccc23)ncn1 [compound 104] | < 100 nM | < 100 nM
14 | CC(C)(C)C(=O)Nc1cc(Nc2cc(-c3cc(Cl)ccc3F)nc3ncccc23)ncn1 [compound 101] | 100 to 1000 nM | 1000 to 10000 nM
15 | CC(C)Oc1cccc(-c2cc(Nc3cc(NCCN4CCCC4)ncn3)c3cccnc3n2)c1 [compound 148] | > 10000 nM | 1000 to 10000 nM
16 | Fc1ccc(Cl)cc1-c1cc(-n2cc(Br)c3cnccc32)c2cccnc2n1 [compound 144] | < 100 nM | < 100 nM
17 | CCOC(=O)NCC(=O)Nc1cc(Nc2cc(-c3cc(Cl)ccc3F)nc3ncccc23)ncn1 [compound 130] | < 100 nM | < 100 nM
18 | CCN1CCC(Nc2cc(Nc3cc(-c4cc(Cl)ccc4F)nc4ncccc34)ncn2)CC1 [compound 127] | 1000 to 10000 nM | 1000 to 10000 nM
